The target in series [1] is T1, Alpha-2C adrenergic receptor (Homo sapiens, UniProt P18825).
T1 sequence (P18825 whole entry): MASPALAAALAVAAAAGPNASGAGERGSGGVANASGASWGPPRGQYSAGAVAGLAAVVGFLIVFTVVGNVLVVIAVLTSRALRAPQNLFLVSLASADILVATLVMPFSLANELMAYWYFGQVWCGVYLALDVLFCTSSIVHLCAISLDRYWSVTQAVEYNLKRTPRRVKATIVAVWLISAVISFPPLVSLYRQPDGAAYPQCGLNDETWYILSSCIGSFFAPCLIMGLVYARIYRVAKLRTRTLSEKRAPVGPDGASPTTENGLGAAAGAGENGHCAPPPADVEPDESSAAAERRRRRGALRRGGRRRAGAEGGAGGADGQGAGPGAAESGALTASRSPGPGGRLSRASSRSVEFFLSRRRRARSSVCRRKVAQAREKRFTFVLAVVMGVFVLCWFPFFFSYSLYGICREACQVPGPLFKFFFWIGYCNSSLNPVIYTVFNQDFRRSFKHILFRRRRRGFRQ
Type of series: functional.

In series [2] the target is T2, Type-1 angiotensin II receptor (Homo sapiens, UniProt P30556).
T2 sequence (P30556 whole entry): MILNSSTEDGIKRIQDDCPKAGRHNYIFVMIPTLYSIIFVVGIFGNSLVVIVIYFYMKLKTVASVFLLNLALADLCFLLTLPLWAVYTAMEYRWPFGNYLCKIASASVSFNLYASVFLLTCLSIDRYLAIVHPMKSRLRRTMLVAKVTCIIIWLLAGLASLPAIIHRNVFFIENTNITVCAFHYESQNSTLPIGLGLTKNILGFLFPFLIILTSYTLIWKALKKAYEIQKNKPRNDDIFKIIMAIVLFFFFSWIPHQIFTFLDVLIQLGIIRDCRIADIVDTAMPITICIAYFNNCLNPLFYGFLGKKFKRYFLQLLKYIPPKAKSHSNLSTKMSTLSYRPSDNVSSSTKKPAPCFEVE

The target of another series is Vasopressin V1a receptor (Homo sapiens, UniProt P37288).
The target of series [3] is Gamma-aminobutyric acid receptor subunit alpha-1 (Rattus norvegicus, UniProt P62813).
The target of series [4] is 3',5'-cyclic-AMP phosphodiesterase 4D (Homo sapiens, UniProt Q08499). Type of series: functional.
Series [5] concerns the target T3, Equilibrative nucleoside transporter 1 (Homo sapiens, UniProt Q99808).
T3 sequence (Q99808 whole entry): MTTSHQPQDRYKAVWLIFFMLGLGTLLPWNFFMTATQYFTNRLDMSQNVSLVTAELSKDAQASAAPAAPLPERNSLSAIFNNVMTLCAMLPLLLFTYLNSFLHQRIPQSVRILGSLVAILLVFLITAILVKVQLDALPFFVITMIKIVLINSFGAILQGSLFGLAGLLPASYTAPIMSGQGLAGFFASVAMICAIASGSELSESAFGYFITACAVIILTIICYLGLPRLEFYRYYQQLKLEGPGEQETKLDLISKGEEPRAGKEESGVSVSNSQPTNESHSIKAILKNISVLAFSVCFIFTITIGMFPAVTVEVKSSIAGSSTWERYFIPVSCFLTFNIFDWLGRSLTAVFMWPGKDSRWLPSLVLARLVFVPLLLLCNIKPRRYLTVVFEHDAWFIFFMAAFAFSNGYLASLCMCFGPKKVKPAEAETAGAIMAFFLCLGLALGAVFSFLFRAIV

A further series concerns the target Histamine H3 receptor (Homo sapiens, UniProt Q9Y5N1).
The next series addresses D(1A) dopamine receptor (Homo sapiens, UniProt P21728). Type of series: functional, cell-based.
Series [6] deals with 5-hydroxytryptamine receptor 2B (Homo sapiens, UniProt P41595). Type of series: functional, cell-based.
For series [7], the target named is Voltage-gated inwardly rectifying potassium channel KCNH2 (Homo sapiens, UniProt Q12809). The format is functional.
The target of series [8] is Sodium-dependent dopamine transporter (Homo sapiens, UniProt Q01959).
In series [9] the target is T4, Muscarinic acetylcholine receptor M1 (Homo sapiens, UniProt P11229).
T4 sequence (P11229 whole entry): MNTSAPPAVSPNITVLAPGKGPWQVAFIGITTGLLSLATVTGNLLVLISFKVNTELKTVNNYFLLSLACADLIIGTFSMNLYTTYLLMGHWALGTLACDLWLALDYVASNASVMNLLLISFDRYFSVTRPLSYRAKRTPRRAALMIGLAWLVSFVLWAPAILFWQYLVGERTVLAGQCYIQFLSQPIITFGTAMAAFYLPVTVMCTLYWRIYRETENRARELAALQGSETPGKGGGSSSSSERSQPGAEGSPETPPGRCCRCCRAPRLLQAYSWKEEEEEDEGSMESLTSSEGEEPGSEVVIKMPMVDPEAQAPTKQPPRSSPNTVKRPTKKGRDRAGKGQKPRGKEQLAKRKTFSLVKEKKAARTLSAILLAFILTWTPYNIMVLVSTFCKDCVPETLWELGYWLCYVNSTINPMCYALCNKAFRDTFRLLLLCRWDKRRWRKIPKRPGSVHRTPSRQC
The format is functional.

Bounds are passed on as bounds.
Note: assay procedure not described here.

Histamine H3 receptor, sequence (Q9Y5N1 whole entry): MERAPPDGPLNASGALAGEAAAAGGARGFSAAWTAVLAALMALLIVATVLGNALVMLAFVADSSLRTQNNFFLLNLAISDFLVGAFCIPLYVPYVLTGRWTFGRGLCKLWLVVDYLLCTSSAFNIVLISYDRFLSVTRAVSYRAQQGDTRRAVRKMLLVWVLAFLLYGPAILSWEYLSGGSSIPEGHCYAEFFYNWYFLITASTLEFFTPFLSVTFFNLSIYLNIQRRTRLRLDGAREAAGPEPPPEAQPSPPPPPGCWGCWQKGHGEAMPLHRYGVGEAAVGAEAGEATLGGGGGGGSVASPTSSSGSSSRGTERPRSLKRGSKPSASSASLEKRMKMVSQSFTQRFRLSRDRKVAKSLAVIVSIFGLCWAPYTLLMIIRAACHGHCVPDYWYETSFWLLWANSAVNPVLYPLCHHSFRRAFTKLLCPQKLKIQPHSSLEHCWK
Voltage-gated inwardly rectifying potassium channel KCNH2, sequence (Q12809 whole entry): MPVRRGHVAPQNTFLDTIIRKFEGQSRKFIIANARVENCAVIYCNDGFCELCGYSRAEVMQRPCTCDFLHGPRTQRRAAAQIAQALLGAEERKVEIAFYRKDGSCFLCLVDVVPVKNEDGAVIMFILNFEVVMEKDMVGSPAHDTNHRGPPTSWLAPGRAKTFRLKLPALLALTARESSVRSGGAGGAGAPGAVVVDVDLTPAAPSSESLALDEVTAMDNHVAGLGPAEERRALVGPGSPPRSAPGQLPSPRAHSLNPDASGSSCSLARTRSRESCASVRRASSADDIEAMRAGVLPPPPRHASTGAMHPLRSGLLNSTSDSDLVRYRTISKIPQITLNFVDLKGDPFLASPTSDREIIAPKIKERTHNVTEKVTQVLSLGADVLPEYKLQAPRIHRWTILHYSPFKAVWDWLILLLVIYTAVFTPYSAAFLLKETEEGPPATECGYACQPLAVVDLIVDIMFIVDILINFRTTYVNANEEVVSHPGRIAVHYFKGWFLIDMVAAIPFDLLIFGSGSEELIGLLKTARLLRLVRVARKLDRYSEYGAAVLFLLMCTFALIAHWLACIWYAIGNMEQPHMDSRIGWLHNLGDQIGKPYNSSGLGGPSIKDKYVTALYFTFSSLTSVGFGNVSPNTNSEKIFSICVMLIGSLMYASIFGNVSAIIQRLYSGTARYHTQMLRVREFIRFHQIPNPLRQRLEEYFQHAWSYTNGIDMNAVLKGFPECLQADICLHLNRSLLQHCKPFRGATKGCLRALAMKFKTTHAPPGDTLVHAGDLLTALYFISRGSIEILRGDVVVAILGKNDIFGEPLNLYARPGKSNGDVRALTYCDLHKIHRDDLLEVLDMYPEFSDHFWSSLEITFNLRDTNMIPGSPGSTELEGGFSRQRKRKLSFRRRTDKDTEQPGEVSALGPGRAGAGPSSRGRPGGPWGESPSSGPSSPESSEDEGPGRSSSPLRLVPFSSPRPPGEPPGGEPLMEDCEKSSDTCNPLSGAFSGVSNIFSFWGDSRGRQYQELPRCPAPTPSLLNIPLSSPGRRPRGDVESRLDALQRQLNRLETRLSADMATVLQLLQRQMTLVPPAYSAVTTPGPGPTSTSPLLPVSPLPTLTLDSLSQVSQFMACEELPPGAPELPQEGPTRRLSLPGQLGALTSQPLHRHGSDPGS
D(1A) dopamine receptor, sequence (P21728 whole entry): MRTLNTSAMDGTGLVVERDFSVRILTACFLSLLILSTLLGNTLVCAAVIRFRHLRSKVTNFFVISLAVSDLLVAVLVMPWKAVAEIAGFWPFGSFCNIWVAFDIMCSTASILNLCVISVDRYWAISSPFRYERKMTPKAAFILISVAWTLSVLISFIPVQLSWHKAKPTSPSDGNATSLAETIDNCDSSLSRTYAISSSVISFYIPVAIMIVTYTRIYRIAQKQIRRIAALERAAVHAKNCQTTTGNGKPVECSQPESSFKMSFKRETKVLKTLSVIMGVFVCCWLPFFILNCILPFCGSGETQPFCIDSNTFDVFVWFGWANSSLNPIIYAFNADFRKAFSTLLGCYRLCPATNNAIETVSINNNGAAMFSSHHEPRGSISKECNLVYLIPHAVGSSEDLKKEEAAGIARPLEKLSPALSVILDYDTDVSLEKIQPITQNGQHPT
Gamma-aminobutyric acid receptor subunit alpha-1, sequence (P62813 whole entry): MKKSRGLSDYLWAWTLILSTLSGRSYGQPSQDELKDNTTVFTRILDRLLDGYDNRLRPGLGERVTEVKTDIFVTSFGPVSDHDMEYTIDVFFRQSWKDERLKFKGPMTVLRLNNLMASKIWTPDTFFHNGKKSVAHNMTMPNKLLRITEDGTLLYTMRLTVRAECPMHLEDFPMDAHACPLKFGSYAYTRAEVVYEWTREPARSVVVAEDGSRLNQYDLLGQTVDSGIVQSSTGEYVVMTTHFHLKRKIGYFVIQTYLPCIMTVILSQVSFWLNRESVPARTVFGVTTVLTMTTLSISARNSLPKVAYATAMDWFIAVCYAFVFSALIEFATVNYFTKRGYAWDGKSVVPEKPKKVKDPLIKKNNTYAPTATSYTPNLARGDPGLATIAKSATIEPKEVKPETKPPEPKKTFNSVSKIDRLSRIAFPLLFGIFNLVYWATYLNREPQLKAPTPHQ
3',5'-cyclic-AMP phosphodiesterase 4D, sequence (Q08499 whole entry): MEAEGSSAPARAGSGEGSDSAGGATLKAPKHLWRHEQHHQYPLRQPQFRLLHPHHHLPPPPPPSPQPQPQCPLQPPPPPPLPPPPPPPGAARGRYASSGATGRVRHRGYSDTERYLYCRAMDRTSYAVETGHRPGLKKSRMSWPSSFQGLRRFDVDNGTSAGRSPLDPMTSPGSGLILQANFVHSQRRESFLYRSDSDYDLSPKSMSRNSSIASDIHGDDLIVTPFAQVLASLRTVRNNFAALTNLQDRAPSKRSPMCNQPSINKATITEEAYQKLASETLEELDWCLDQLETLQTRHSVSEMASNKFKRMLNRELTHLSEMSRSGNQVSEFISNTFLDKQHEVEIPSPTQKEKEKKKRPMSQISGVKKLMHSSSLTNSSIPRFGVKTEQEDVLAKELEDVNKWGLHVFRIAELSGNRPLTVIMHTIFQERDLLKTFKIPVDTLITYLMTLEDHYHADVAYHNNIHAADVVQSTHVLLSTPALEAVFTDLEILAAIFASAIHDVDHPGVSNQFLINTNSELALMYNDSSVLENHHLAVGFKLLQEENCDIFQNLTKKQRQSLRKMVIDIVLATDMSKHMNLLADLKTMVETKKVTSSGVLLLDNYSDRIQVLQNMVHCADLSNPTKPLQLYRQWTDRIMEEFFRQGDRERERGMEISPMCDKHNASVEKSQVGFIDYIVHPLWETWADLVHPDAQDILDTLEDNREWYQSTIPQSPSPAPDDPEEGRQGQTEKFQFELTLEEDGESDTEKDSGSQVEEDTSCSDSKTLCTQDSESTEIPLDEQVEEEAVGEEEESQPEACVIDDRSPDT
Sodium-dependent dopamine transporter, sequence (Q01959 whole entry): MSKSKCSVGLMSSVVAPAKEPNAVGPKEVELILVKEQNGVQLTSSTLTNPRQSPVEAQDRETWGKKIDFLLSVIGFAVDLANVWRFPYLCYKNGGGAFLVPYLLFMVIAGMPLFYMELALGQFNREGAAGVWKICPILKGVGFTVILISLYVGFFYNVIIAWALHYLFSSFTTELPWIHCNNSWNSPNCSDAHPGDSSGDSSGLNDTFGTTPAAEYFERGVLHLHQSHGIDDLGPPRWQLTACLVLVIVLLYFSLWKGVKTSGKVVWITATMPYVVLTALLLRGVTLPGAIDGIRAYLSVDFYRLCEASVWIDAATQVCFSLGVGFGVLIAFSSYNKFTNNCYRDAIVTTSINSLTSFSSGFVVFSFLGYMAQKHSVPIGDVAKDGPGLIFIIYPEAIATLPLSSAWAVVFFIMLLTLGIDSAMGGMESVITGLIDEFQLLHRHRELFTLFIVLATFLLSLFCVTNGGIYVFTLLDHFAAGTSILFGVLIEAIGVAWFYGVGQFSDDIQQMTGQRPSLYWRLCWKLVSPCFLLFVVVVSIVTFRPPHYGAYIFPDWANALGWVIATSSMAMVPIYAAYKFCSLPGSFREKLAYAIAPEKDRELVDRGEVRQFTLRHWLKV
Vasopressin V1a receptor, sequence (P37288 whole entry): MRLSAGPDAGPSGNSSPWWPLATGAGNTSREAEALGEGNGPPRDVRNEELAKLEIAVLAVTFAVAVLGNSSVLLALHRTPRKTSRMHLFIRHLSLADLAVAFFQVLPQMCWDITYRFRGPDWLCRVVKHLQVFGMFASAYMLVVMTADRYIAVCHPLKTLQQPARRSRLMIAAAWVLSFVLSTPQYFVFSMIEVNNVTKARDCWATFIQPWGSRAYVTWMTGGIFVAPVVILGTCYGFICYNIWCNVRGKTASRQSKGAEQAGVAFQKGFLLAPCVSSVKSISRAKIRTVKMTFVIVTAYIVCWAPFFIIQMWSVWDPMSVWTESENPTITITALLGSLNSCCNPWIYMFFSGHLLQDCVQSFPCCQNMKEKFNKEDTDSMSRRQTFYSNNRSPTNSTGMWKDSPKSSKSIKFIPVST
5-hydroxytryptamine receptor 2B, sequence (P41595 whole entry): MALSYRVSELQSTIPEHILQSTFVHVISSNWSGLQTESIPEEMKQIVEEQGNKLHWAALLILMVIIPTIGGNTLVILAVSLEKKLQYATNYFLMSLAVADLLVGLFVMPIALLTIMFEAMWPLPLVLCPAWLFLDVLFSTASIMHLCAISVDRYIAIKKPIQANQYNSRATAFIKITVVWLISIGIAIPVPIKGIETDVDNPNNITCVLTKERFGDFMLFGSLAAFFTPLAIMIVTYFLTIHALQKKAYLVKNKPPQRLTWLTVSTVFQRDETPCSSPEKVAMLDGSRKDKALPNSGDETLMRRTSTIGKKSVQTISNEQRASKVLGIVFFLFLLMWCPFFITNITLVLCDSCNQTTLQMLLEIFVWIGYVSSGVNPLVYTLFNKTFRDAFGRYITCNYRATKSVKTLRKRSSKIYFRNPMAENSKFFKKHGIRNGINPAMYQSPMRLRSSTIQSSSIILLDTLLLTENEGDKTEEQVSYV

As to `NCCCC(O)(P(=O)(O)O)P(=O)(O)O` [ALENDRONIC ACID], the concentration at half-maximal activity (AC50) (as a rule, the midpoint of the concentration-response curve, whichever way the signal moves) is over 10 µM in [1]; over 30 µM in [2]; over 10 µM at Vasopressin V1a receptor; over 10 µM in [3]; over 30 µM in series [4]; over 30 µM in series [5]. Further, on Histamine H3 receptor, the AC50 is over 10 µM.
Turning to `Nc1ccc(C(=O)O)c(O)c1` [AMINOSALICYLIC ACID], the AC50 (in series [1]; in [2]; on D(1A) dopamine receptor; in series [3]; in series [6]; in series [7] (read-out: AC50)) was over 30 µM throughout. The AC50 (in [4]; in series [8]; on Histamine H3 receptor) was over 30 µM throughout.
Turning to `COc1cc(OC)c(C(=O)CCCN2CCCC2)c(OC)c1` [BUFLOMEDIL], the AC50 is 13 µM in series [1]; over 30 µM in series [2]; over 30 µM at D(1A) dopamine receptor; over 30 µM in series [3]; over 30 µM in [6]; 2.6 µM in [7] (read-out: AC50). Also, the AC50 in [4] is over 30 µM; in series [5], over 30 µM; in [8] it was over 30 µM; on Histamine H3 receptor it was 20 µM.
`CCCCCCNC(=O)n1cc(F)c(=O)[nH]c1=O` [CARMOFUR]: the AC50 (in series [1]; in series [2]; on D(1A) dopamine receptor; in series [3]; in series [6]; in [7] (read-out: AC50)) was over 30 µM throughout. In addition, the AC50 (in series [4]; in series [5]; in [8]; on Histamine H3 receptor) was over 30 µM each time.
On to `CC(C)(C)NCC(O)c1cc(Cl)c(N)c(Cl)c1` (stereo not drawn) [CLENBUTEROL], for which the AC50 (in [1]; in series [2]; on D(1A) dopamine receptor; in [3]; in [6]; in [7] (read-out: AC50)) was over 30 µM throughout. For the same molecule, the AC50 is over 30 µM in series [4], over 30 µM in [5], 27.1 µM in series [8] and over 30 µM on Histamine H3 receptor.
On to `COc1cccc2c1C(=O)c1c(O)c3c(c(O)c1C2=O)C[C@@](O)(C(C)=O)C[C@@H]3O[C@H]1C[C@H](N)[C@H](O)[C@H](C)O1` [DAUNORUBICIN], for which the AC50 in series [1] is 17.5 µM; in [2], over 30 µM; on Vasopressin V1a receptor it was 3.6 µM; on D(1A) dopamine receptor, over 30 µM; in series [3], over 30 µM; in series [7] (read-out: AC50), over 30 µM. For the same molecule, the AC50 in series [4] amounted to 22 µM; in [5], 14.3 µM; in [8], 17.7 µM; on Histamine H3 receptor, 18 µM.
For the molecule `C[C@@H]1C[C@H]2[C@@H]3C[C@H](F)C4=CC(=O)C=C[C@]4(C)[C@@]3(F)[C@@H](O)C[C@]2(C)[C@H]1C(=O)CO` [DIFLUCORTOLONE], the AC50 in [1], in series [9], in series [6], in series [4] and in [8] was over 30 µM in each case.
As to `Nc1nc2c(c(=O)[nH]1)N(C=O)C(CNc1ccc(C(=O)N[C@@H](CCC(=O)O)C(=O)O)cc1)CN2` (stereo partly drawn) [LEUCOVORIN], the AC50 (in [1]; in [2]; at D(1A) dopamine receptor; in series [3]; in series [6]; in [7] (read-out: AC50)) was over 30 µM in each case. Besides, the AC50 (in series [4]; in series [5]; in series [8]; on Histamine H3 receptor) was over 30 µM each time.
Take `CC[N+]1(C)CCCC(OC(=O)C(O)(c2ccccc2)c2ccccc2)C1` (stereo not drawn) [PIPENZOLATE]: the AC50 in [1] was over 30 µM; in series [2] it was over 30 µM; on Vasopressin V1a receptor it was over 30 µM; in [9], 0.023 µM; at D(1A) dopamine receptor, over 30 µM; in series [3], over 30 µM. Also, the AC50 in series [6] was over 30 µM; in series [7] (read-out: AC50), 0.97 µM; in [4], over 30 µM; in series [8], over 30 µM; on Histamine H3 receptor, over 30 µM.
In the case of `C[n+]1ccccc1/C=N/O` [PRALIDOXIME], the AC50 in series [1] is over 30 µM; at D(1A) dopamine receptor it was over 30 µM; in [3] it was over 30 µM; in series [6], over 30 µM; in series [7] (read-out: AC50), over 30 µM; in series [4], 24 µM.
In the case of `CC(C)CC(N(C)C)C1(c2ccc(Cl)cc2)CCC1` (stereo not drawn) [SIBUTRAMINE], the AC50 was 3.8 µM in series [1]; over 30 µM in [2]; over 10 µM at Vasopressin V1a receptor; over 10 µM on D(1A) dopamine receptor; over 10 µM in series [3]; 8.34 µM in [7] (read-out: AC50). In addition, the AC50 in [4] was over 30 µM; in [5], over 30 µM; in series [8] it was 0.75 µM; at Histamine H3 receptor, over 10 µM.
Consider `CC(C)(C)NC[C@H](O)COc1nsnc1N1CCOCC1` [TIMOLOL], for which the AC50 (in series [1]; in [2]; at D(1A) dopamine receptor; in [3]; in [6]; in series [7] (read-out: AC50)) was over 30 µM throughout. Moreover, the AC50 (in [4]; in [5]; in series [8]; on Histamine H3 receptor) was over 30 µM each time.
Take `COc1cc2nccc(Oc3ccc(NC(=O)Nc4cc(C)on4)c(Cl)c3)c2cc1OC` [TIVOZANIB]: the AC50 in series [1] was over 30 µM; in [9] it was over 30 µM; in [7] (read-out: AC50) it was over 1 µM; in [4], 27 µM; in series [5], over 3 µM; in series [8], 2.6 µM.
For the molecule `CN1[C@@H]2CC[C@H]1C[C@@H](OC(=O)c1c[nH]c3ccccc13)C2` [TROPISETRON], the AC50 in series [1] was 27 µM; in series [2], over 30 µM; at D(1A) dopamine receptor, over 30 µM; in series [3], over 30 µM; in [6], over 30 µM; in series [7] (read-out: AC50), 0.95 µM. In addition, the AC50 (in [4]; in [8]; at Histamine H3 receptor) was over 30 µM each time.
On to `COc1ccc(C(CN(C)C)C2(O)CCCCC2)cc1` (stereo not drawn) [VENLAFAXINE], for which the AC50 is over 10 µM in series [1]; over 30 µM in series [2]; over 30 µM on D(1A) dopamine receptor; over 10 µM in series [3]; over 30 µM in series [7] (read-out: AC50); over 10 µM in series [4]. Also, the AC50 in series [5] is over 30 µM; at Histamine H3 receptor, 6.8 µM.
COLISTIN: the AC50 in series [1] is over 30 µM; in series [9] it was over 30 µM; on D(1A) dopamine receptor, over 30 µM; in [3], over 30 µM; in series [6], over 30 µM; in series [7] (human, cellular components), over 30 µM. Further, the concentration at half-maximal activity (AC50) in [4] was over 30 µM.

The record behind these values is ChEMBL document CHEMBL5291721, “A preclinical secondary pharmacology resource illuminates target-adverse drug reaction associations of marketed drugs” (Nat Commun, 2023).
